For 29 compounds, AC50 results are on record in ChEMBL document CHEMBL5291721, “A preclinical secondary pharmacology resource illuminates target-adverse drug reaction associations of marketed drugs” (Nat Commun, 2023).

For experiment [1], the target named is Voltage-dependent N-type calcium channel subunit alpha-1B (Rattus norvegicus, UniProt Q02294). The experiment is classed as functional.
A further experiment deals with T1, D(4) dopamine receptor (Homo sapiens, UniProt P21917).
T1 sequence (P21917 whole entry): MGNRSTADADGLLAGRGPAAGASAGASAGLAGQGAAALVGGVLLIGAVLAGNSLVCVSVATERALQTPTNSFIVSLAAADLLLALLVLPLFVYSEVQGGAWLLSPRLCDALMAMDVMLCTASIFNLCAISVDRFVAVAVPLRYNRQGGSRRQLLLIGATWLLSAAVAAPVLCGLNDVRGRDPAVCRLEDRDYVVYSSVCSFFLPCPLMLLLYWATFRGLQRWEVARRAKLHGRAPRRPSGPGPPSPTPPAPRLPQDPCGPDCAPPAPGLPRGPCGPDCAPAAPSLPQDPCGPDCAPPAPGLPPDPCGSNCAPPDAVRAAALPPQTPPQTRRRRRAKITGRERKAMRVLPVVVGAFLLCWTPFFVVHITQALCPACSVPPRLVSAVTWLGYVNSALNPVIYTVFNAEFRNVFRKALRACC

Another experiment concerns the target Estrogen receptor beta (Homo sapiens, UniProt Q92731).
The next experiment concerns the target T2, Progesterone receptor (Homo sapiens, UniProt P06401).
T2 sequence (P06401 whole entry): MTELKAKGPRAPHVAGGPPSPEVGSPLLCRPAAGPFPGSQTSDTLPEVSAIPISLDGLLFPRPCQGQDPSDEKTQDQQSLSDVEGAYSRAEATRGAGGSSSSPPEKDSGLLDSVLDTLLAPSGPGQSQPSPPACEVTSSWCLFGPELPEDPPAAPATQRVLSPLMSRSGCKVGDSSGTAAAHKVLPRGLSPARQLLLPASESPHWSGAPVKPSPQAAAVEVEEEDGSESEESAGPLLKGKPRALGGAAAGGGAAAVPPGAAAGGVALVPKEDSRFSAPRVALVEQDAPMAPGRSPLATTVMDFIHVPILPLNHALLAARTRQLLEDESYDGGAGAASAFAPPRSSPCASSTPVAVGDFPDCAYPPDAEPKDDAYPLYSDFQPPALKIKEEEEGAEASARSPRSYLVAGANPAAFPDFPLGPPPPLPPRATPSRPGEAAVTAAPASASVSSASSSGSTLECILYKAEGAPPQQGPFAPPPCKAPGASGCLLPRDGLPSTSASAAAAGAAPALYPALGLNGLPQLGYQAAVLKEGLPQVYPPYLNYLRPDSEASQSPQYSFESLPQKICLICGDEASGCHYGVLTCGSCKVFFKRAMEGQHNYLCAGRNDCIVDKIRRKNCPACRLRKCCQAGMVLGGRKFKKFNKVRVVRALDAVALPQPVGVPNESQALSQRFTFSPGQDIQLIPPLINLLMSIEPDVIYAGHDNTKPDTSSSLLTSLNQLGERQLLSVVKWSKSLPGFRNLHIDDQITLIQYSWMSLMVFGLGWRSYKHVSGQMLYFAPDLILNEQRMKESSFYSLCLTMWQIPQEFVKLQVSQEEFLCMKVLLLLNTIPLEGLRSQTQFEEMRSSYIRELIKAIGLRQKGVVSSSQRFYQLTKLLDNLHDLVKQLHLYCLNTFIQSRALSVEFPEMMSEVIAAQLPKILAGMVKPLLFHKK

Experiment [2] has as its target T3, 5-hydroxytryptamine receptor 1A (Homo sapiens, UniProt P08908).
T3 sequence (P08908 whole entry): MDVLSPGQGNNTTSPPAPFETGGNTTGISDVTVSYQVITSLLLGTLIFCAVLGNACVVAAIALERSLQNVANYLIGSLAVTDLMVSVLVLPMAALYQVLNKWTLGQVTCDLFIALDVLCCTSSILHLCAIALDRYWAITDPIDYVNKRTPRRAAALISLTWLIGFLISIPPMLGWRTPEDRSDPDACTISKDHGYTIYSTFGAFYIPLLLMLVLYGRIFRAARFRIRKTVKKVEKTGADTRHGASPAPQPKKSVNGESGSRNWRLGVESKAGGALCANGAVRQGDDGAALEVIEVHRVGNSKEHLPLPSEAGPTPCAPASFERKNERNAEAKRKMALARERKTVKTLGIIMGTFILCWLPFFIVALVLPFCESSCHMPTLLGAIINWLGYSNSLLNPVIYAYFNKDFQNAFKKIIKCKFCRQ

The target in experiment [3] is Gamma-aminobutyric acid receptor subunit alpha-1 (Rattus norvegicus, UniProt P62813).
Chain of Gamma-aminobutyric acid receptor subunit alpha-1 (P62813 whole entry): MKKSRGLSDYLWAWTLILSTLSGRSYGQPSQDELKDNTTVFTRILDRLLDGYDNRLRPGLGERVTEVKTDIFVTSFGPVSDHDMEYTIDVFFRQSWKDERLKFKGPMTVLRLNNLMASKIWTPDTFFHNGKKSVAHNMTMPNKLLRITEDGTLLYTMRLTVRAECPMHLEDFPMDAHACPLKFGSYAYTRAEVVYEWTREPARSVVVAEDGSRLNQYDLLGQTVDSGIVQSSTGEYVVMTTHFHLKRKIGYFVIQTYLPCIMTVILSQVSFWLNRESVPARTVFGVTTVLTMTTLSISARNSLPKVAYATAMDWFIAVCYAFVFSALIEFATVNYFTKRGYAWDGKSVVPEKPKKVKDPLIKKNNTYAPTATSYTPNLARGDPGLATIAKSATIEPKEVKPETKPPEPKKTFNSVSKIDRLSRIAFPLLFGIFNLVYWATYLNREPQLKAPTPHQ
Note: assay procedure not described here.

Chain of Voltage-dependent N-type calcium channel subunit alpha-1B (Q02294 whole entry): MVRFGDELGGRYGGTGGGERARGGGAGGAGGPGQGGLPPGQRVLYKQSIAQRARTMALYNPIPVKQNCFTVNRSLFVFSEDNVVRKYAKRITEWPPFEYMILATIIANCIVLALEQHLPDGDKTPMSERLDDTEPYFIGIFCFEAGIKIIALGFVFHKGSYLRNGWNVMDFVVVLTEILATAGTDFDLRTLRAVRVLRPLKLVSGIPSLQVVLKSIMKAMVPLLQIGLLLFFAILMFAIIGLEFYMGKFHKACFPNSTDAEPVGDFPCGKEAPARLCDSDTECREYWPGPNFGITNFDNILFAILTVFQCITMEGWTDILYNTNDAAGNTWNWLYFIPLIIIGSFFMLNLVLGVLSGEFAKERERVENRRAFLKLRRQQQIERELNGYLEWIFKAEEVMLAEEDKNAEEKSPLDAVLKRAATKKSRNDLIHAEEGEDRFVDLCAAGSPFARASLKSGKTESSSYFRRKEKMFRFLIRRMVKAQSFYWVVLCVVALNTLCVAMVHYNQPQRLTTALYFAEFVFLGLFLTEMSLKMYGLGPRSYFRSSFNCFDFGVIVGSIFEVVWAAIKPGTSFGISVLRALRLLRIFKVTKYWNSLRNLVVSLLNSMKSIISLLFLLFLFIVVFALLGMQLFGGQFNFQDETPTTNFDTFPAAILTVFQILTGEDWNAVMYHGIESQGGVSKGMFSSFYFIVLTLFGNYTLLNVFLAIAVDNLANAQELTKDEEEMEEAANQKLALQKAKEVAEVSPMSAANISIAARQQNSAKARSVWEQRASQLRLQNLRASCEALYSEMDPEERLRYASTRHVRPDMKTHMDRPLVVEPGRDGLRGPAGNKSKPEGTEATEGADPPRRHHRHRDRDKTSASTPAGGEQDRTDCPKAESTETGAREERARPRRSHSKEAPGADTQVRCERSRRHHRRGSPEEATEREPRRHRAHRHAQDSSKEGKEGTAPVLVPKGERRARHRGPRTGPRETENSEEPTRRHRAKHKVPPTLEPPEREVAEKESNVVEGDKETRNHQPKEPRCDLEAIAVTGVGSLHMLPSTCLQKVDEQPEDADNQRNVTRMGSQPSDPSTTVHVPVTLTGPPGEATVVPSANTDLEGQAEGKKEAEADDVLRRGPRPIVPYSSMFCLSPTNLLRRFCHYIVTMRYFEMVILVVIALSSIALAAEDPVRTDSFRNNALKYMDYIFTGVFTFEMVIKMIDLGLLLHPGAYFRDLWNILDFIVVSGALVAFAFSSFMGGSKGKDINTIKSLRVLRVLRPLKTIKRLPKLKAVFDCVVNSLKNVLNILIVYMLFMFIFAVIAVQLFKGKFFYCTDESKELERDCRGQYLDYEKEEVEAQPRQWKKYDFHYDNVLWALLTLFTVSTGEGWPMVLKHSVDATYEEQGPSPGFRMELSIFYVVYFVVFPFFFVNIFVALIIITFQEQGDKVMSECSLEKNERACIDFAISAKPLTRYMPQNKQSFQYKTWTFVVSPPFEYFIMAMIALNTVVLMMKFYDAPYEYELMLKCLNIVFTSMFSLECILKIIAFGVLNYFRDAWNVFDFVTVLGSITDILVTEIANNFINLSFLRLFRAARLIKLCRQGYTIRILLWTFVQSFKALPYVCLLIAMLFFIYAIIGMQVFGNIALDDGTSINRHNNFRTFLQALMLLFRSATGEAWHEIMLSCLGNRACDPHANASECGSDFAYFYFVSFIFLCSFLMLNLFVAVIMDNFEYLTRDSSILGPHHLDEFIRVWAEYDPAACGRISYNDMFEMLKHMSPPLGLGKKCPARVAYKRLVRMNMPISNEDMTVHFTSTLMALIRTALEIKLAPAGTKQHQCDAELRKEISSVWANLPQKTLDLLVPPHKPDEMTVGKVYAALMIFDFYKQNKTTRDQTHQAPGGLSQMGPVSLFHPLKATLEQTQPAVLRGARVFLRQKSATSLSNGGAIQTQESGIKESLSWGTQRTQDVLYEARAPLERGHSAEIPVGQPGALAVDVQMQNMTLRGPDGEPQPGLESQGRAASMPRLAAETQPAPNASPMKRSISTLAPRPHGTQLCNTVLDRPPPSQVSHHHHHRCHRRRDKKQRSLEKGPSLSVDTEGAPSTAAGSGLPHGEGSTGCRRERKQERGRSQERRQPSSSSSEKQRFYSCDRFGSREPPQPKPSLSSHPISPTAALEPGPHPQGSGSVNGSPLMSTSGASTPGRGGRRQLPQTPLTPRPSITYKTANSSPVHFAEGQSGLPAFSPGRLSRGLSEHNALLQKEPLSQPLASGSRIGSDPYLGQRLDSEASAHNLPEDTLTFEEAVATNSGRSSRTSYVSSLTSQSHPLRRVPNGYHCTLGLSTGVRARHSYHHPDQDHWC
Chain of Estrogen receptor beta (Q92731 whole entry): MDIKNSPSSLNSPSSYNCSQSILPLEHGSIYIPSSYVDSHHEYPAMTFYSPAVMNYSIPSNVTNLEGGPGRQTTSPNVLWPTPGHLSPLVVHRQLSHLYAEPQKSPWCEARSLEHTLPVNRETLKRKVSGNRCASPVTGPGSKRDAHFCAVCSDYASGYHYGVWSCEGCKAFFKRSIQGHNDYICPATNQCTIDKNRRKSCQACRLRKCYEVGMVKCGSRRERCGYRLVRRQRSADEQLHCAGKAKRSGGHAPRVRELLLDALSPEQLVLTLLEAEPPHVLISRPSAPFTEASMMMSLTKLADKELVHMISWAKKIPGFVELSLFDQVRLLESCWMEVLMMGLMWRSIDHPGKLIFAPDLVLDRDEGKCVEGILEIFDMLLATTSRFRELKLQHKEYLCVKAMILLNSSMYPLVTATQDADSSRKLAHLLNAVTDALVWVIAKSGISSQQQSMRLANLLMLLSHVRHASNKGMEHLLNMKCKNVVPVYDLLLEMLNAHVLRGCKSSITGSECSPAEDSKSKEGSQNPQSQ

One may read the AC50 as the midpoint of the concentration-response curve, whichever way the signal moves. With `CCOC(=O)[C@H](CCc1ccccc1)N[C@@H](C)C(=O)N1[C@H](C(=O)O)C[C@@H]2CCC[C@@H]21`, the AC50 in experiment [1] is over 10 µM; at D(4) dopamine receptor, over 10 µM; on Estrogen receptor beta it was over 30 µM; at Progesterone receptor, over 30 µM; in experiment [2], over 10 µM.
The compound `CCCSc1ccc2nc(NC(=O)OC)[nH]c2c1` [ALBENDAZOLE] displayed a concentration at half-maximal activity (AC50) on Progesterone receptor of over 30 µM.
Regarding `CC[C@H]1OC(=O)[C@H](C)[C@@H](O[C@H]2C[C@@](C)(OC)[C@@H](O)[C@H](C)O2)[C@H](C)[C@@H](O[C@@H]2O[C@H](C)C[C@H](N(C)C)[C@H]2O)[C@](C)(O)C[C@@H](C)CN(C)[C@H](C)[C@@H](O)[C@]1(C)O` [AZITHROMYCIN], the concentration at half-maximal activity (AC50) was over 10 µM in experiment [1]; over 10 µM on D(4) dopamine receptor; over 30 µM on Estrogen receptor beta; over 30 µM in experiment [3]; over 30 µM at Progesterone receptor; over 10 µM in experiment [2].
For `CCc1oc2ccccc2c1C(=O)c1cc(I)c(O)c(I)c1` [BENZIODARONE], half-maximal activity in experiment [3] (AC50) was put at 17.1 µM.
The same measure, in the same setting: to `CN(C)CCn1nnnc1SCC1=C(C(=O)O)N2C(=O)[C@@H](NC(=O)Cc3csc(N)n3)[C@H]2SC1` [CEFOTIAM] belongs over 30 µM.
As for `Cc1ccc(-c2cc(C(F)(F)F)nn2-c2ccc(S(N)(=O)=O)cc2)cc1` [CELECOXIB], the half-maximal activity concentration (AC50) in experiment [1] is over 10 µM; on D(4) dopamine receptor, over 10 µM; at Progesterone receptor it was over 30 µM; in experiment [2], over 10 µM.
`CC1=C(C(=O)O)N2C(=O)[C@@H](NC(=O)[C@H](N)c3ccccc3)[C@H]2SC1` [CEPHALEXIN ANHYDROUS]: the AC50 in experiment [1] was over 10 µM; on D(4) dopamine receptor, over 10 µM; at Estrogen receptor beta, over 30 µM; at Progesterone receptor, over 30 µM; in experiment [2], over 10 µM.
For the compound `COCc1c(C(C)C)nc(C(C)C)c(/C=C/[C@@H](O)C[C@@H](O)CC(=O)O)c1-c1ccc(F)cc1` [CERIVASTATIN], the AC50 in experiment [3] is over 30 µM.
For the compound `CN(C)CCC(c1ccc(Cl)cc1)c1ccccn1` (configuration not stated) [CHLORPHENIRAMINE], the AC50 is over 10 µM in experiment [1], over 10 µM on D(4) dopamine receptor, over 30 µM at Progesterone receptor and over 10 µM in experiment [2].
`C[N+](C)(C)CCO` [CHOLINE] gave an AC50 in experiment [3] of over 30 µM.
In the case of `CN(C)[C@@H](c1cccc(O)c1)[C@H]1CCCC[C@H]1O` [CIRAMADOL], the concentration at half-maximal activity (AC50) in experiment [3] is over 30 µM.
For `CN(C)CC(c1ccc(O)cc1)C1(O)CCCCC1` (configuration not stated) [DESVENLAFAXINE], the concentration at half-maximal activity (AC50) in experiment [3] was over 30 µM.
As for `O=C(Cc1ccc(-c2ccccc2)cc1)Nc1ccccn1` [DIFENPIRAMIDE], the AC50 in experiment [3] was over 30 µM.
On the same count and under the same terms, to `Cc1cc(C#N)cc(C)c1Oc1nc(Nc2ccc(C#N)cc2)nc(N)c1Br` [ETRAVIRINE] belongs over 30 µM.
For `C[N+]1(C)CCC(OC(=O)C(O)(c2ccccc2)C2CCCC2)C1` (configuration not stated) [GLYCOPYRRONIUM BROMIDE], the concentration at half-maximal activity (AC50) on Progesterone receptor is over 30 µM.
Take `C[C@]12CCC(=O)C=C1CC[C@@H]1[C@@H]2[C@@H](O)C[C@@]2(C)[C@H]1CC[C@]2(O)C(=O)CO` [HYDROCORTISONE]: the AC50 in experiment [1] is over 10 µM; at D(4) dopamine receptor, over 10 µM; at Estrogen receptor beta, over 30 µM; at Progesterone receptor, 7.61 µM; in experiment [2], over 10 µM.
In experiment [3], `CC(C)Nc1ncccn1` [ISAXONINE] registered a half-maximal activity concentration (AC50) of over 30 µM.
Turning to `CCC(C)n1ncn(-c2ccc(N3CCN(c4ccc(OCC5COC(Cn6cncn6)(c6ccc(Cl)cc6Cl)O5)cc4)CC3)cc2)c1=O` (configuration not stated) [ITRACONAZOLE], the concentration at half-maximal activity (AC50) is over 10 µM in experiment [1]; over 10 µM on D(4) dopamine receptor; over 30 µM at Estrogen receptor beta; over 30 µM on Progesterone receptor; over 10 µM in experiment [2].
As for `N[C@@H](C(=O)N[C@@H]1C(=O)N2C(C(=O)O)=C(Cl)CC[C@H]12)c1ccccc1` [LORACARBEF ANHYDROUS], in experiment [3], the concentration at half-maximal activity (AC50) was over 30 µM.
On to `CN1C(C(=O)Nc2ccccn2)=C(O)c2sc(Cl)cc2S1(=O)=O` [LORNOXICAM], for which the figures for the concentration at half-maximal activity (AC50) (on Progesterone receptor; in experiment [2]) were over 30 µM and over 10 µM, respectively.
With `CC1(C)NC(=O)N(c2ccc([N+](=O)[O-])c(C(F)(F)F)c2)C1=O` [NILUTAMIDE], the AC50 in experiment [3] is over 30 µM.
Still for that read-out and setting: in the case of `CN(C)S(=O)(=O)c1ccc2c(c1)N(CCCN1CCC(CCO)CC1)c1ccccc1S2` [PIPOTIAZINE] it was over 30 µM; in that of `CCC(=O)NCC[C@@H]1CCc2ccc3c(c21)CCO3` [RAMELTEON], over 30 µM.
For `CS(=O)(=O)c1ccc(C2=C(c3ccccc3)C(=O)OC2)cc1` [ROFECOXIB], the concentration at half-maximal activity (AC50) was over 10 µM in experiment [1]; over 10 µM at D(4) dopamine receptor; over 30 µM on Estrogen receptor beta; over 30 µM on Progesterone receptor; over 10 µM in experiment [2].
On to `CO[C@H]1C[C@@H]2CC[C@@H](C)[C@@](O)(O2)C(=O)C(=O)N2CCCC[C@H]2C(=O)O[C@H]([C@H](C)C[C@@H]2CC[C@@H](O)[C@H](OC)C2)CC(=O)[C@H](C)/C=C(\C)[C@@H](O)[C@@H](OC)C(=O)[C@H](C)C[C@H](C)/C=C/C=C/C=C/1C` [SIROLIMUS], for which the AC50 was over 10 µM in experiment [1]; over 30 µM at Estrogen receptor beta; over 30 µM in experiment [3]; over 30 µM on Progesterone receptor; over 10 µM in experiment [2].
In the case of `Cc1cn([C@H]2C=C[C@@H](CO)O2)c(=O)[nH]c1=O` [STAVUDINE], the AC50 is over 10 µM in experiment [1]; over 10 µM at D(4) dopamine receptor; over 30 µM at Estrogen receptor beta; over 30 µM in experiment [3]; over 30 µM on Progesterone receptor; over 10 µM in experiment [2].
For `Clc1ccc2nsnc2c1NC1=NCCN1` [TIZANIDINE], the concentration at half-maximal activity (AC50) was over 10 µM in experiment [1], over 30 µM on Estrogen receptor beta, over 30 µM on Progesterone receptor and over 10 µM in experiment [2].
Take `CCOC(=O)[C@H](CCc1ccccc1)N[C@@H](C)C(=O)N1[C@H](C(=O)O)C[C@H]2CCCC[C@@H]21` [TRANDOLAPRIL]: in experiment [3], the AC50 was over 30 µM.
`Cc1cn([C@H]2C[C@H](N=[N+]=[N-])[C@@H](CO)O2)c(=O)[nH]c1=O` [ZIDOVUDINE]: the concentration at half-maximal activity (AC50) was over 10 µM in experiment [1]; over 10 µM at D(4) dopamine receptor; over 30 µM in experiment [3]; over 30 µM on Progesterone receptor; over 10 µM in experiment [2].
